One assay concerns NIH-3T3 fibroblasts. The assay is described as follows: MTT cell viability, 72 h, dark or 458 nm irradiation. As to conditions: for GI50: 72 h, MTT. The format is cell-based, murine. The protocol: (§1) For all biology experiments, the compounds were solubilized in DMSO to reach a final fixed concentration equal to 0.1% v/v to avoid cytotoxicity caused by DMSO [89]. The results are normalized to controls (0.1% v/v DMSO). Depending on the cell type, approximatively 1000 to 10,000 cells/cm^2 were seeded in 48-well plates for MTT, ATP and GSH assays and 60 mm Petri dishes for Western blots. Cells were allowed to attach overnight and then incubated for 4 h with the different complexes (in the dark), then irradiated for 10 min, followed by an incubation in the dark up to 72 h.
(§2) Irradiation was conducted using an in-house device: a series of blue light LEDs selected according to the absorption spectra of the compounds at a 458 nm wavelength with an emitted power of 9.6 watts. The absorbed energy, or irradiance, was measured at 458 nm with a Thorlabs Optical Power Meter PM100A at 5 and 10 cm distance between the cell layer and the light source and expressed as mW/cm^2.
(§3) A tetrazolium-based MTT reagent (3-(4,5-dimethylthiazol-2-yl)-2,5-diphenyltetrazolium bromide) was used to determine cell viability, as previously described. After 72 h of treatment at 37 °C and 5% CO2, cells were incubated with 25 μL MTT solution (5 mg/mL; Sigma-Aldrich) for 4 h. After solubilization with 500 μL of lysis buffer (DMSO), formazan was quantified by spectrophotometry with a microplate reader at 570 nm absorbance (ClarioSTAR, BMG LabTech, Champigny-sur-Marne, France). GI50 values corresponding to the concentration that caused 50% inhibition of cell proliferation were calculated from dose–response curves obtained by nonlinear regression analysis. All results were calculated from data obtained in at least three independent experiments.

Assay [1] has as its system PC-3 prostate cancer cells. Described as above. Conditions: for GI50: 72 h, MTT. The format is cell-based, human. The procedure:
as §1, §2, §3

The next assay has as its system T24 bladder cancer cells. Described as above. Format: cell-based, human. As to conditions: for GI50: 72 h, MTT. The protocol:
as §1, §2, §3

The subject of a further assay is PC-3. Nature of the assay: MTT cytotoxicity, 48 h. Format: cell-based, human. The procedure: (§4) The in vitro cytotoxicity of iridium(III) complexes 4a–4g was first evaluated against cancer cell lines PC-3 (human prostate) and T24 (human bladder) and the non-cancerous NIH-3T3 cell line (murine fibroblasts) using colorimetric MTT tests after 48 h of treatment. The dimeric iridium precursor [IrCl(ppy)2]2 was used as reference and the results are summarized in Table S1 (Supplementary Materials) in the supporting information file. […] The complexes were also evaluated for their cytotoxicity towards healthy NIH-3T3 cells, giving access to the selectivity index (SI). […] No linear correlation between lipophilicity and anti-cancer activity was found for the iridium(III) complexes 4a–4g. For the following biological studies, we focused on the C1 series.
(§5) Table S1. Cytotoxic activity of iridium(III) NHC complexes 4a−4g expressed as GI50 (μM) values towards selected cancer and normal cell lines as determined by MTT assay (48 h).a Complex PC-3 T24 NIH3T3 SI (PC-3) SI (T24) […]
(§6) a GI50 values correspond to the concentration of complexes causing 50 % inhibition of cell growth.
(§7) Data were obtained from three independent experiments.
(§8) The cytotoxic effects of the NHC precursors, the imidazolium salts, which represents the potential hydrolysis and/or degradation products of the complexes, have been published before [SI-1, SI-2]. […]

Another assay concerns T24. The assay is described as follows: MTT cytotoxicity, 48 h. Format: cell-based, human. The procedure: as §4, §5, §6, §7, §8
The next assay deals with NIH3T3. Nature of the assay: MTT cytotoxicity, 48 h. The format is cell-based, murine. The procedure: as §4, §5, §6, §7, §8
Where [2] appears, read: GI50 non-irradiated / GI50 irradiated.

Molecules are shown by their SMILES. Where two headings read alike, the source gives them in different places.

Usually GI50 stands for the concentration giving 50% growth inhibition. Consider `c1cc[c]2c(c1)-c1cccc[n+]1[Ir-3]213([Cl+][Ir-3]24([Cl+]1)([c]1ccccc1-c1cccc[n+]12)[c]1ccccc1-c1cccc[n+]14)[c]1ccccc1-c1cccc[n+]13` [[IrCl(ppy)2]2, reference compound], for which the GI50 worked out at 14 µM with NIH-3T3 fibroblasts (458 nm irradiation 10 min, read-out: GI50 NIH-3T3 Blue); 40 µM with NIH-3T3 fibroblasts (dark, read-out: GI50 NIH-3T3 Dark); 14 µM in assay [1] (458 nm irradiation 10 min, read-out: GI50 PC-3 Blue); 29 µM in assay [1] (dark, read-out: GI50 PC-3 Dark); 22 µM in the assay on T24 bladder cancer cells (458 nm irradiation 10 min, read-out: GI50 T24 Blue); 26 µM with T24 bladder cancer cells (dark, read-out: GI50 T24 Dark). Further, the figures for the concentration for 50% growth inhibition (GI50) with PC-3 (MTT), in the assay with T24 (MTT) and in the assay on NIH3T3 were greater than 20 µM, 14.8 µM and greater than 20 µM, respectively. For the same compound, the “PI NIH-3T3” value in the assay on NIH-3T3 fibroblasts (setting [2]) was determined as 2.9. In assay [1] (setting [2]), the “PI PC-3” value is 2.1. Moreover, the “SI vs NIH, PC-3 Blue” value in assay [1] (blue light, GI50 NIH-3T3 / GI50 PC-3) was found to be 1.0. The “SI vs NIH, PC-3 Dark” value in assay [1] (dark, GI50 NIH-3T3 / GI50 PC-3) was found to be 1.4. In addition, the “PI T24” value in the assay on T24 bladder cancer cells (setting [2]) worked out at 1.2. For the same compound, in the assay with T24 bladder cancer cells (blue light, GI50 NIH-3T3 / GI50 T24), the “SI vs NIH, T24 Blue” value is reported as 0.7. The “SI vs NIH, T24 Dark” value in the assay with T24 bladder cancer cells (dark, GI50 NIH-3T3 / GI50 T24) is given as 1.5. For the same compound, the “SI (PC-3)” value in the assay with PC-3 (NIH3T3 vs PC-3) is greater than 1. For the same compound, the “SI (T24)” value in the assay on T24 (NIH3T3 vs T24) is listed as greater than 1.4.
